Test results: patent publication US20240299299A1, “COMPOSITIONS AND METHODS FOR INCREASING THE EFFICACY OF IMMUNOTHERAPIES AND VACCINES” (The Regents of the University of Michigan, priority 2021, published 2024)
Values belong to the molecule of their own block, whether it stands above or below them.

Columns and labels:
[1] = system: OT-I CD8+ T cells; assay: In vitro central memory (Tcm) differentiation of OT-I CD8+ T cells activated with SIINFEKL peptide and IL-2 with metabolites; format: cell-based, mice; details: day 8; metabolite-supplemented medium (arginine 3 mM, 3-methylhistidine 3 mM, DHB 100 μM, sodium ferulate 100 μM)
Method: FIG. 2: a) OT-I CD8+ T cells were cultured with different metabolites in vitro as indicated, b,c) shown is the frequency of CD44^+CD62L^+ Tcm CD8+ T cells on day 8. d) OT-I CD8+ T cells were activated with α-CD3/α-CD28 antibodies in presence of metabolites as indicated and shown is the Tcm CD8+ T cells on day 7. Data represent the mean±s.e.m. (n=5).
(§1) Splenocytes from OT-I mice were obtained aseptically. The cells were cultured in 96-well plates (1×10^5 cells per well). For Tcm differentiation study, cells were activated with SIINFEKL peptide (4×10^−9M) in the presence of various metabolites (arginine: 3 mM; 3-methylhistidine: 3 mM; N-acetylneuraminate: 100 μM; disodium sebacate: 100 μM; DHB: 100 μM; pantothenate: 100 μM; γ-aminobutyric acid: 100 μM; glycerol: 100 μM; AICAR: 100 μM, sodium ferulate: 100 μM) for 3 days. Then cells were washed three times with T-cell medium and further cultured with IL-2 (10 ng ml^−1; PeproTech) in the presence of metabolites for 5 days. The cells were then washed twice and re-activated with SIINFEKL peptide (10 μM) for 2 h. The suspension cells were collected, blocked with CD16/32 antibody and stained with the fixable viability dye eFluor 450, FITC-CD44 rat anti-human/mouse and PE-CD62L monoclonal antibody. To test if the central memory CD8+ T cells differentiation is dependent on dendritic cells, CD8 T cells isolated from the spleen in OT-I mice were incubated in the 96-well plate, which was precoated with anti-hamster IgG antibody. […] (1 μg mL^−1) and IL-2 (100 U mL^−1) were added into each well in the presence of 3-methylhistidine (3 mM), DHB (100 μM), or sodium ferulate (100 μM) for 2 days. Then cells were washed for three times to remove α-CD3/α-CD28 antibodies and further incubated with metabolites and IL-2 (10 ng ml^−1) for 5 days. Thereafter, cells were collected for central memory CD8^+ T cells analysis. For CD8^+ T cells survival study, cells were activated with antigen peptide as above, following with thoroughly washing, and incubation in presence of IL-2 for 2 days. Metabolites were added during this incubation (arginine: 3 mM, 1 mM; 3-methylhistidine: 3 mM, 1 mM, 500 μM, 100 μM; N-acetylneuraminate: 100 μM; disodium sebacate: 100 μM; DHB: 100 μM, 50 μM, 20 μM; pantothenate: 100 μM; γ-aminobutyric acid: 100 μM; glycerol: 100 μM; AICAR: 100 μM). Then cells were further incubated in absence of both IL-2 and metabolites for 36 h to induce the apoptosis/dead. For Tcf1^+CD8^+ differentiation study, cells were activated with antigen peptide as above, followed by thoroughly washing, and incubation with metabolites in presence of IL-2 for 3 days. […] Tcf1^+CD8^+, CD44^+CD62L^+CD8^+ and survival (stained with Annexin V-APC and PI) T cells were detected via flow cytometry.

[2] = system: OT-I CD8+ T cells; assay: CD8+ T cell survival upon IL-2 withdrawal (Annexin V/PI); format: cell-based, mice; details: dependent on the dose of metabolites
Method: FIG. 4: a) OT-I CD8+ T cells were cultured with different metabolites in vitro as indicated, b,c) shown are the level of survival CD8+ T cells (Annexin V^−PI^−) as well as the representative flow cytometry plots on day 5.5. Data represent the mean±s.e.m. (n=5).
as §1, with “days.” for “days. Metabolites were added during this incubation (arginine: 3 mM, 1 mM; 3-methylhistidine: 3 mM, 1 mM, 500 μM, 100 μM; N-acetylneuraminate: 100 μM; disodium sebacate: 100 μM; DHB: 100 μM, 50 μM, 20 μM; pantothenate: 100 μM; γ-aminobutyric acid: 100 μM; glycerol: 100 μM; AICAR: 100 μM). Then cells were further incubated in absence of both IL-2 and metabolites for 36 h to induce the apoptosis/dead. For Tcf1^+CD8^+ differentiation study, cells were activated with antigen peptide as above, followed by thoroughly washing, and incubation with metabolites in presence of IL-2 for 3 days.”

[3] = system: tumor; details: reported in literature (Geiger et al.); cited from earlier work
[4] = Encapsulation of DHB-based prodrugs in lipid-based formulation; format: physicochemical; details: oleic acid, Tween 80, PBS emulsion
Method: The DHB-based prodrugs were synthesized by the Medicinal Chemistry Core in University of Michigan. To prepare the formulation, the prodrug #201 or #905 (4 mg) was added to the mixture of oleic acid (45 μL) and Tween 80 (25 μL) and incubated overnight to equilibrate and allow the prodrug to dissolve. Then an aqueous phase consisting of PBS buffer was added, and the formulation emulsified by ultrasonication with an ultrasonic processor.

[5] = system: CT26 colon carcinoma cells; assay: CT26 tumor model, oral prodrug-based lipid formulation plus α-PD-1; format: in vivo, BALB/c mice
Method: FIG. 9: a) Scheme showing the preparation of formulation encapsulating DHB prodrug. b) Therapeutic treatment regimen. BALB/c mice were s.c. inoculated with 1.5×10^5 CT26 colon carcinoma cells. The prodrug #201 (0.5 mg per dose) or #905 (1 mg per dose) were orally administrated every other day, respectively. 100 μg α-PD-1 was injected i.p. on days 11, 15, and 19. Shown are the (c) average tumor growth; AH1-specific CD8+ T cells in PBMCs on days (d) 18 and (e) 24. Tumor microenvironment analysis: (f) immune cells (CD45^+ cells) infiltration, (g) CD8^+ T cells, (h) CD44^+CD62L^+ central memory CD8+ T cells, and (i) AH1-specific CD8^+ T cells in tumor tissue on day 25. Data represent the mean±s.e.m. (n=5).
The CT26 tumor model was established as above. The formulation containing prodrug #201 or #905 was orally administered starting on day 8 and performed every other day. α-PD-1 antibody (100 μg per dose) was i.p. injected on days 11, 15, and 19. The PBMCs were obtained on days 18 and 24 and stained with PE-tagged peptide-MHC tetramer (H-2L^d-restricted SPSYVYHQF). Mice were euthanized on day 25 and tumor tissues were cut into small pieces and incubated with collagenase type IV (1 mg ml-1) and DNase I (0.1 mg ml-1) under gentle shaking. After 30 min, the cell suspension was filtered through a 70-μm strainer. The cells were washed with fluorescence-activated cell sorting (FACS) buffer and blocked with CD16/32 antibody. The cells were then stained with the designated antibodies: efluor450, FITC-CD44 rat anti-human/mouse, PE-CD62L monoclonal antibody, and APC-CD8 rat anti-mouse, PE-Tcf1/Tcf7 rabbit monoclonal antibody, APC-efluor780-Cd45 Rat anti Mouse (Clone: 30 F11), PE-AH1-specific tetramer. Cells were analyzed by flow cytometry.

Structure (SMILES): N=C(N)NCCC[C@H](N)C(=O)O [L-arginine]
- differentiation of CD44+CD62L+ central memory CD8+ T cells [1]: significantly increased the differentiation
- survival of activated CD8+ T cells [2]: significantly increased the survival
- antitumor effect in vivo [3]: improve the antitumor effect in vivo

- encapsulation in lipid-based dose forms [4]: can be successfully encapsulated
Structure (SMILES): CCOC(=O)c1ccc(OC(=O)C(C)(C)C)c(OC(=O)C(C)(C)C)c1 [Prodrug #201, 4-(ethoxycarbonyl)-1,2-phenylene bis(2,2-dimethylpropanoate)]
- infiltration of immune cells (CD45+ cells), AH1-specific CD8+ T cells and CD44+CD62L+ central memory CD8+ T cells in tumor tissue ([5]; oral formulation plus α-PD-1, day 25): promoted the infiltration
- frequency of AH1-specific CD8+ T cells among PBMCs ([5]; oral formulation plus α-PD-1, days 18 and 24): increased the frequency
- tumor growth ([5]; orally administered lipid formulation, 0.5 mg per dose every other day, plus α-PD-1): substantially slowed down the tumor growth
